Test [1] concerns the target T1, EGFR (aa668-1210, Invitrogen) (Homo sapiens, UniProt P00533).
T1 construct: EGFR (aa668-1210, Invitrogen); purchased Invitrogen
Put plainly: Biochemical EGFR inhibition assay (TR-FRET), wild-type EGFR. To be noted: ATP at Km, 15 min pre-incubation, 60 min reaction; read-out: WT (Km ATP) IC50. In outline: (§1)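 Biotin-poly GT phosphorylation detected with Eu-cryptate anti-phosphotyrosine (PT66) and XL665-streptavidin after EDTA/KF stop, 665/620 nm ratio. Enzyme and compound preincubated 15 min, then ATP at Km added for 60 min at room temperature. Four-parameter logistic fit gives IC50.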

The target of test [2] is T2, EGFR(L858R_T790M_C797S) (aa695-end, Invitrogen) (Homo sapiens, UniProt P00533, C797S/L858R/T790M).
T2 construct: purchased Invitrogen
T2 sequence (P00533 695-1210 T790M/C797S/L858R): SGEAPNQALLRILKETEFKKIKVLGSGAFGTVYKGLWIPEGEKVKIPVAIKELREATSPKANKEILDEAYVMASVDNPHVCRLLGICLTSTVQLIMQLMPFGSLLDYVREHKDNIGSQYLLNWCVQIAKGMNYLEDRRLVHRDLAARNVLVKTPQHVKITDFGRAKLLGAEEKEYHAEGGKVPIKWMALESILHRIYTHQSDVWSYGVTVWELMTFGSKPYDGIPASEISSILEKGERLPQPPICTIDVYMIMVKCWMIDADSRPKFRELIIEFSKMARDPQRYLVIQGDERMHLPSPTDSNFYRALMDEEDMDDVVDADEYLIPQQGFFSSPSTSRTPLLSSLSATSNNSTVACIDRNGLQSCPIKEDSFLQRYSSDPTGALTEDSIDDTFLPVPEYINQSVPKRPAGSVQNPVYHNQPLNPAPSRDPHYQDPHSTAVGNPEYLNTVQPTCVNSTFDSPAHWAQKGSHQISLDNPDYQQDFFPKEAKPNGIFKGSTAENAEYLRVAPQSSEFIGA
Nature of the test: Biochemical EGFR inhibition assay (TR-FRET), L858R/T790M/C797S mutant. Particulars: ATP at Km, 15 min pre-incubation, 60 min reaction; read-out: LR_TM_CS (Km ATP) IC50. In outline: as §1

Test [3] addresses EGFR(Dell9_T790M_C797S) (aa 669-1210, in house) (Homo sapiens, UniProt P00533, T790M/C797S, form not given). Put plainly: Biochemical EGFR inhibition assay (TR-FRET), Del19/T790M/C797S mutant. Particulars: ATP at Km, 15 min pre-incubation, 60 min reaction; read-out: Del_TM_CS (Km ATP) IC50. An outline of the steps: as §1
A general note: Time-resolved FRET reads energy transfer from a long-lived donor to a nearby acceptor.

Another test addresses BaF3-WT cells (Homo sapiens, UniProt P00533). Nature of the test: Cell antiproliferation assay (CellTiter-Glo), BaF3-WT. It counts as cell-based. Particulars: 48 h treatment, read-out: BaF3-WT IC50. An outline of the steps:
(§2)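 Viability read as CellTiter-Glo luminescence after 48 h compound treatment at 0.2% DMSO final. Eight concentrations, 5-fold steps, made as 500× DMSO stocks starting at 5 mM. Percent inhibition curve-fitted (Hill slope, top, bottom) to give IC50.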
Background: Cellular ATP, detected with luciferase, serves as a proxy for viable cell number.

The next test addresses BaF3-LR_TM_CS cells (Homo sapiens, UniProt P00533, T790M/C797S/L858R, cells depend on it). Nature of the test: Cell antiproliferation assay (CellTiter-Glo), BaF3-LR_TM_CS. It counts as cell-based. Particulars: 48 h treatment, read-out: BaF3-LR_TM_CS IC50. In outline:
as §2

The target of another test is BaF3-Del_TM_CS cells (Homo sapiens, UniProt P00533, T790M/C797S, cells depend on it, form not given). Nature of the test: Cell antiproliferation assay (CellTiter-Glo), BaF3-Del_TM_CS. It counts as cell-based. Particulars: 48 h treatment, read-out: BaF3-Del_TM_CS IC50. In outline: as §2
Sequence of BaF3-Del_TM_CS cells (P00533 with tags, fused parts or gaps DEL746-750/T790M/C797S, form open): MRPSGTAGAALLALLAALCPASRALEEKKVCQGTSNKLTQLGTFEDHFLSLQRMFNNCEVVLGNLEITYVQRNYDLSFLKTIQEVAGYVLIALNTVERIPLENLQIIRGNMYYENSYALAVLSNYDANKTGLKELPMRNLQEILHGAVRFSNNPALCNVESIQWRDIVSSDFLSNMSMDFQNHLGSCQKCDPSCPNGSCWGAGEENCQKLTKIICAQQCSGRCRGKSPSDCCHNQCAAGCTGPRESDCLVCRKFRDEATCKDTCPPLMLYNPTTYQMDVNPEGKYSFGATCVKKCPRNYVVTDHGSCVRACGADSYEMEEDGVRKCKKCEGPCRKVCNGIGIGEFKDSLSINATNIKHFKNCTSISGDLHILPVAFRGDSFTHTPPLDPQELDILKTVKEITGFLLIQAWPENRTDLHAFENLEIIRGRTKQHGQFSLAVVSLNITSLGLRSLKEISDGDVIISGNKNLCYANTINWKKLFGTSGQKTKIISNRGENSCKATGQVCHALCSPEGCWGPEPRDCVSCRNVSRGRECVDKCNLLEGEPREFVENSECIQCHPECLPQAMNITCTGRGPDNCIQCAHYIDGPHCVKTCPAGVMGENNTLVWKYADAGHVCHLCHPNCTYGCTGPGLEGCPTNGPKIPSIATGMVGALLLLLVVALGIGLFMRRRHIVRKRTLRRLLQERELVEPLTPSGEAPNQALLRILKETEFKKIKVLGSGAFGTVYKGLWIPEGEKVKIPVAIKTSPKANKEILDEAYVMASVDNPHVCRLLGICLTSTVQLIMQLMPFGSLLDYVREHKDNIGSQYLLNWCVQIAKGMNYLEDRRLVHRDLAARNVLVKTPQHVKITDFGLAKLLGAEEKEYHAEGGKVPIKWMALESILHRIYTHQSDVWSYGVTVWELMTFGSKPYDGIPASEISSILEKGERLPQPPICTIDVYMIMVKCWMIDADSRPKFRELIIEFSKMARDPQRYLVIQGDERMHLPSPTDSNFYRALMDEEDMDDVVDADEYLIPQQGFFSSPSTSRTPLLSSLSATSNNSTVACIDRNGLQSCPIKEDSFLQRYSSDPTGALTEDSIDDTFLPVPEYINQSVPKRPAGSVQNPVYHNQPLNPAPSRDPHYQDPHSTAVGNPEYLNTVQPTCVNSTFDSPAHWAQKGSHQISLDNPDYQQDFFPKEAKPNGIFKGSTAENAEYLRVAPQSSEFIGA

Sequence of EGFR(Dell9_T790M_C797S) (aa 669-1210, in house) (P00533 with tags, fused parts or gaps DEL746-750/T790M/C797S, form open): as above
Sequence of BaF3-WT cells (P00533 whole entry, change not shown): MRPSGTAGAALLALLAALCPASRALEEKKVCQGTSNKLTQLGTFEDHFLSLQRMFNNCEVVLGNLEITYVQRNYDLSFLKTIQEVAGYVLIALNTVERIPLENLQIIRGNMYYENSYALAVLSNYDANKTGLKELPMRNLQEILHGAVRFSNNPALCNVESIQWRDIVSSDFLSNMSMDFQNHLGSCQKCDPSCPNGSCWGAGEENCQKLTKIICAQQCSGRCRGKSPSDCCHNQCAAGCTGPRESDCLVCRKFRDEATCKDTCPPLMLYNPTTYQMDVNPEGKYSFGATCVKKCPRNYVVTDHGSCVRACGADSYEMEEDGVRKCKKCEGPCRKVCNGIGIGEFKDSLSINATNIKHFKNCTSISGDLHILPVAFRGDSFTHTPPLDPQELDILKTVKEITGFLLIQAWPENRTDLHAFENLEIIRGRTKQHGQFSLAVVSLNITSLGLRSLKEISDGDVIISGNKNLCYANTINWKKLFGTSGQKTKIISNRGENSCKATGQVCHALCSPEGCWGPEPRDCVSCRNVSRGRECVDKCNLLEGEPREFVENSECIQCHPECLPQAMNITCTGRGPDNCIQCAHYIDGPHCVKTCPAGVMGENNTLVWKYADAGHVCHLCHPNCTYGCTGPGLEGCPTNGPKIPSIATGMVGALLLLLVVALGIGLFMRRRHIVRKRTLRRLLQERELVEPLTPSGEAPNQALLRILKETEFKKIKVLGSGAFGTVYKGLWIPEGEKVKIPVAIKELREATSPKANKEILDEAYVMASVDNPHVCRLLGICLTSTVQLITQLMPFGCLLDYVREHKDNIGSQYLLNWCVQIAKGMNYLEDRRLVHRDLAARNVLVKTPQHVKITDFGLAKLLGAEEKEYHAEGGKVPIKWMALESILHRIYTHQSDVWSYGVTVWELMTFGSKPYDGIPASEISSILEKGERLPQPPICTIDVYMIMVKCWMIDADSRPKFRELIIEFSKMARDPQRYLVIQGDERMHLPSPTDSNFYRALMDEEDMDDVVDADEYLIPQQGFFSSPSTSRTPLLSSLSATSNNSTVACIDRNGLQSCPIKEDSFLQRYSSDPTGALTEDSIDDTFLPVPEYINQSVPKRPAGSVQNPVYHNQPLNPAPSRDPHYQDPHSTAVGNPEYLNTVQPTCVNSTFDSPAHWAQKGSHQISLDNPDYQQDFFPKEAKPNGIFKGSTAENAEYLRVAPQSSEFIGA
T1 sequence (P00533 668-1210): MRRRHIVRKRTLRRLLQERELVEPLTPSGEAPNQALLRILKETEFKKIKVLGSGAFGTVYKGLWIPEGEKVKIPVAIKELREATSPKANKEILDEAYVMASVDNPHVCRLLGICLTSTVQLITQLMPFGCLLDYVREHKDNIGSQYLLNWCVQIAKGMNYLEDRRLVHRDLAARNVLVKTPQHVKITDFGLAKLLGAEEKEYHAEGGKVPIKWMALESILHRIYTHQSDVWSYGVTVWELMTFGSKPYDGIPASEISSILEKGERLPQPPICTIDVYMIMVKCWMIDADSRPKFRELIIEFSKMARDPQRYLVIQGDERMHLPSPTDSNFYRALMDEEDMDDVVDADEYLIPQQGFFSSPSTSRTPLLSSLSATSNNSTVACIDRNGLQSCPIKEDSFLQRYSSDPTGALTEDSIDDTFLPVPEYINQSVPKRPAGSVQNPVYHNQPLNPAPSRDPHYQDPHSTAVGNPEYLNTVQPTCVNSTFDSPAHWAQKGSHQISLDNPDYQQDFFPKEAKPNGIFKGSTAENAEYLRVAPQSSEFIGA

By IC50 is commonly meant the concentration that gives 50% inhibition. Regarding `CCc1cc(Nc2nc(Nc3cccc4c3N(S(C)(=O)=O)CC4)c3cc[nH]c3n2)c(OC)cc1N1CCC(N2CCN(C)CC2)CC1` [Example 94, N^2-(5-ethyl-2-methoxy-4-(4-(4-methylpiperazin-1-yl)piperidin-1-yl)phenyl)-N^4-(1-(methylsulfonyl)indolin-7-yl)-7H-pyrrolo[2,3-d]pyrimidine-2,4-diamine], the IC50 in test [1] was 29 nM; in test [2] it was 1.1 nM; in test [3], 1.5 nM. Moreover, the results for the GI50 at BaF3-WT cells, on BaF3-LR_TM_CS cells and on BaF3-Del_TM_CS cells were 640 nM, 84.8 nM and 10.9 nM, respectively.
Turning to `COc1cc(N2CCC(N3CCN(C)CC3)CC2)c(Cl)cc1Nc1nc(Nc2cccc3c2N(S(C)(=O)=O)CC3)c2cc[nH]c2n1` [Example 95, N^2-(5-chloro-2-methoxy-4-(4-(4-methylpiperazin-1-yl)piperidin-1-yl)phenyl)-N^4-(1-(methylsulfonyl)indolin-7-yl)-7H-pyrrolo[2,3-d]pyrimidine-2,4-diamine], the 50% inhibitory concentration (IC50) in test [1] was 28 nM; in test [2] it was 0.79 nM; in test [3], 1.4 nM. Further, the GI50 at BaF3-WT cells was found to be 1960 nM; on BaF3-LR_TM_CS cells, 83.8 nM; on BaF3-Del_TM_CS cells, 9.58 nM.
`COc1cc(N2CCC3(CCN(C)CC3)CC2)c(Cl)cc1Nc1nc(Nc2cccc3c2N(S(C)(=O)=O)CC3)c2cc[nH]c2n1` [Example 96, N^2-(5-chloro-2-methoxy-4-(9-methyl-3,9-diazaspiro[5.5]undecan-3-yl)phenyl)-N^4-(1-(methylsulfonyl)indolin-7-yl)-7H-pyrrolo[2,3-d]pyrimidine-2,4-diamine]: the IC50 is 109 nM in test [1], 1.4 nM in test [2] and 1.7 nM in test [3]. The GI50 was found to be 1480 nM on BaF3-WT cells, 66.5 nM on BaF3-LR_TM_CS cells and 29.3 nM at BaF3-Del_TM_CS cells.
In the case of `COc1cc(N2CC3(CN(C)C3)C2)c(F)cc1Nc1nc(Nc2cccc3c2N(S(C)(=O)=O)CC3)c2cc[nH]c2n1` [Example 97, N^2-(5-fluoro-2-methoxy-4-(6-methyl-2,6-diazaspiro[3.3]heptan-2-yl)phenyl)-N^4-(1-(methylsulfonyl)indolin-7-yl)-7H-pyrrolo[2,3-d]pyrimidine-2,4-diamine], the IC50 is 206 nM in test [1], 2.4 nM in test [2] and 4.3 nM in test [3]. The GI50 stood at 1930 nM on BaF3-WT cells, 240 nM on BaF3-LR_TM_CS cells and 104 nM at BaF3-Del_TM_CS cells.
In the case of `COc1cc(N2CCC(N3CCN(C)CC3)CC2)c(F)cc1Nc1nc(Nc2cccc3c2N(S(C)(=O)=O)CC3)c2cc[nH]c2n1` [Example 98, N^2-(5-fluoro-2-methoxy-4-(4-(4-methylpiperazin-1-yl)piperidin-1-yl)phenyl)-N4-(1-(methylsulfonyl)indolin-7-yl)-7H-pyrrolo[2,3-d]pyrimidine-2,4-diamine], the half-maximal inhibitory concentration (IC50) was 22 nM in test [1], 0.56 nM in test [2] and 0.96 nM in test [3]. Besides, the GI50 on BaF3-WT cells was found to be 1460 nM; on BaF3-LR_TM_CS cells, 76.5 nM; on BaF3-Del_TM_CS cells, 24.7 nM.
As to `COc1cc(C2CCN(C)CC2)c(C)cc1Nc1nc(Nc2cccc3c2N(S(C)(=O)=O)CC3)c2cc[nH]c2n1` [Example 99, N^2-(2-methoxy-5-methyl-4-(1-methylpiperidin-4-yl)phenyl)-N^4-(1-(methylsulfonyl)indolin-7-yl)-7H-pyrrolo[2,3-d]pyrimidine-2,4-diamine], the figures for the IC50 in test [1], in test [2] and in test [3] were 427 nM, 3 nM and 8.6 nM, respectively. In addition, the GI50 was 1970 nM on BaF3-WT cells, 399 nM at BaF3-LR_TM_CS cells and 59 nM at BaF3-Del_TM_CS cells.
Regarding `COc1cc(N2CCC3(CC2)CN(C)C3)c(C)cc1Nc1nc(Nc2cccc3c2N(S(C)(=O)=O)CC3)c2cc[nH]c2n1` [Example 100, N^2-(2-methoxy-5-methyl-4-(2-methyl-2,7-diazaspiro[3.5]nonan-7-yl)phenyl)-N^4-(1-(methylsulfonyl)indolin-7-yl)-7H-pyrrolo[2,3-d]pyrimidine-2,4-diamine], the figures for the concentration for half-maximal inhibition (IC50) in test [1], in test [2] and in test [3] were 49 nM, 0.92 nM and 1 nM, respectively. Besides, the GI50 on BaF3-WT cells was 1590 nM; at BaF3-LR_TM_CS cells it was 116 nM; on BaF3-Del_TM_CS cells, 39.9 nM.
On to `COc1cc(N2CCCN(C)CC2)c(C)cc1Nc1nc(Nc2cccc3c2N(S(C)(=O)=O)CC3)c2cc[nH]c2n1` [Example 101, N^2-(2-methoxy-5-methyl-4-(4-methyl-1,4-diazepan-1-yl)phenyl)-N^4-(1-(methylsulfonyl)indolin-7-yl)-7H-pyrrolo[2,3-d]pyrimidine-2,4-diamine], for which the values for the half-inhibitory concentration (IC50) in test [1], in test [2] and in test [3] were 170 nM, 2 nM and 3.1 nM, respectively. For the same compound, the GI50 at BaF3-WT cells worked out at 1410 nM; at BaF3-LR_TM_CS cells, 157 nM; on BaF3-Del_TM_CS cells it was 58.9 nM.
`COc1cc(N2C[C@H]3CN(C)C[C@H]3C2)c(C)cc1Nc1nc(Nc2cccc3c2N(S(C)(=O)=O)CC3)c2cc[nH]c2n1` [Example 102, N^2-(2-methoxy-5-methyl-4-((3aR,6aS)-5-methylhexahydropyrrolo[3,4-c]pyrrol-2(1H)-yl)phenyl)-N^4-(1-(methylsulfonyl)indolin-7-yl)-7H-pyrrolo[2,3-d]pyrimidine-2,4-diamine]: the IC50 came to 66 nM in test [1], 1.1 nM in test [2] and 2 nM in test [3]. Moreover, the GI50 at BaF3-WT cells was 1710 nM; on BaF3-LR_TM_CS cells, 314 nM; at BaF3-Del_TM_CS cells, 30.4 nM.
Take `COc1cc(N2CCC(N(C)C)CC2)c(C)cc1Nc1nc(Nc2cccc3c2N(S(C)(=O)=O)CC3)c2cc[nH]c2n1` [Example 103, N^2-(4-(4-(dimethylamino)piperidin-1-yl)-2-methoxy-5-methylphenyl)-N^4-(1-(methylsulfonyl)indolin-7-yl)-7H-pyrrolo[2,3-d]pyrimidine-2,4-diamine]: the half-maximal inhibitory concentration (IC50) is 28 nM in test [1], 0.47 nM in test [2] and 0.78 nM in test [3]. Besides, the GI50 at BaF3-WT cells amounted to 1690 nM; on BaF3-LR_TM_CS cells it was 76.7 nM; on BaF3-Del_TM_CS cells, 25.6 nM.
For the compound `COc1cc(C2CCC(N(C)C)CC2)c(C)cc1Nc1nc(Nc2cccc3c2N(S(C)(=O)=O)CC3)c2cc[nH]c2n1` (stereo not drawn) [Example 104, N^2-(4-(4-(dimethylamino)cyclohexyl)-2-methoxy-5-methylphenyl)-N^4-(1-(methylsulfonyl)indolin-7-yl)-7H-pyrrolo[2,3-d]pyrimidine-2,4-diamine], the results for the IC50 in test [1], in test [2] and in test [3] were 332 nM, 3.4 nM and 5.3 nM, respectively. Besides, the GI50 at BaF3-WT cells was determined as 1490 nM; at BaF3-LR_TM_CS cells, 195 nM; on BaF3-Del_TM_CS cells, 128 nM.
`COc1cc(N2CCN(C)[C@@H](C)C2)c(C)cc1Nc1nc(Nc2cccc3c2N(S(C)(=O)=O)CC3)c2cc[nH]c2n1` [Example 105, (S)—N^2-(4-(3,4-dimethylpiperazin-1-yl)-2-methoxy-5-methylphenyl)-N^4-(1-(methylsulfonyl)indolin-7-yl)-7H-pyrrolo[2,3-d]pyrimidine-2,4-diamine]: the IC50 in test [1] was determined as 455 nM; in test [2], 5.3 nM; in test [3], 10 nM. In addition, the GI50 on BaF3-WT cells worked out at 2090 nM; at BaF3-LR_TM_CS cells, 240 nM; at BaF3-Del_TM_CS cells it was 87 nM.
For `COc1cc(N2C[C@@H](C)N(C)[C@@H](C)C2)c(C)cc1Nc1nc(Nc2cccc3c2N(S(C)(=O)=O)CC3)c2cc[nH]c2n1` [Example 106, N^2-(2-methoxy-5-methyl-4-((3S,5R)-3,4,5-trimethylpiperazin-1-yl)phenyl)-N^4-(1-(methylsulfonyl)indolin-7-yl)-7H-pyrrolo[2,3-d]pyrimidine-2,4-diamine], the half-inhibitory concentration (IC50) came to 575 nM in test [1], 5.3 nM in test [2] and 4.9 nM in test [3]. Further, the GI50 on BaF3-WT cells amounted to 1790 nM; on BaF3-LR_TM_CS cells it was 93.8 nM; at BaF3-Del_TM_CS cells, 57.3 nM.
Turning to `COc1cc(N2CCN(C)[C@H](C)C2)c(C)cc1Nc1nc(Nc2cccc3c2N(S(C)(=O)=O)CC3)c2cc[nH]c2n1` [Example 107, (R)—N2-(4-(3,4-dimethylpiperazin-1-yl)-2-methoxy-5-methylphenyl)-N4-(1-(methylsulfonyl)indolin-7-yl)-7H-pyrrolo[2,3-d]pyrimidine-2,4-diamine], the IC50 in test [1] amounted to 417 nM; in test [2], 4.8 nM; in test [3] it was 7.1 nM. Moreover, the GI50 at BaF3-WT cells was 1960 nM; at BaF3-LR_TM_CS cells, 105 nM; at BaF3-Del_TM_CS cells, 60.8 nM.
